Measurements reported in ChEMBL document CHEMBL5137028, “Progress and Challenges in Targeting the SARS-CoV-2 Papain-like Protease” (J Med Chem, 2022).

Test system: SARS-CoV-2
Experiment: Antiviral activity against SARS-CoV-2 nCoV-2019BetaCoV/Wuhan/WIV04/2019 infected in African green monkey Vero E6 cells assessed as viral growth inhibition pretreated for 1 hr followed by infection at MOI of 0.01 and replacement of fresh medium containing compound measured after 24 hrs by plaque reduction assay
Type: functional, organism-based
Conditions: Severe acute respiratory syndrome coronavirus 2, nCoV-2019BetaCoV/Wuhan/WIV04/2019, Vero C1008

Row | Compound | EC50
1 | C[C@H]1COC2=C1C(=O)C(=O)c1c2ccc2c1CCCC2(C)C [CRYPTOTANSHINONE] | 700 nM
2 | COCC[n+]1c2c(n(Cc3cnccn3)c1C)C(=O)c1ccccc1C2=O [SEPANTRONIUM BROMIDE] | 170 nM
3 | Cc1coc2c1C(=O)C(=O)c1c-2ccc2c(C)cccc12 [TANSHINONE I] | 2260 nM
